Laboratory results as given in ChEMBL document CHEMBL3351465, “Discovery of functionalized bisimidazoles bearing cyclic aliphatic-phenyl motifs as HCV NS5A inhibitors” (Bioorg Med Chem Lett, 2014).
pEC50: −log10 of the molar value. Values after ≈ are worked out from the molar mass of the structure shown. Each block holds one molecule with its values, some of them ahead of it.

Key:
[1] = Volume of distribution at steady state in Sprague-Dawley rat at 1 mg/kg, iv; type: ADME, organism-based; parameters: dose 1 mg/kg, route intravenous; conditions: in vivo, read-out: Vdss
[2] = Volume of distribution at steady state in cynomolgus monkey at 1 mg/kg, iv; type: ADME, organism-based, Macaca fascicularis; parameters: dose 1 mg/kg, route intravenous; conditions: in vivo, read-out: Vdss
[3] = Half life in Sprague-Dawley rat at 1 mg/kg, iv; type: ADME, organism-based; parameters: dose 1 mg/kg, route intravenous; conditions: in vivo
[4] = Half life in cynomolgus monkey at 1 mg/kg, iv; type: ADME, organism-based, Macaca fascicularis; parameters: dose 1 mg/kg, route intravenous; conditions: in vivo
[5] = AUClast in Sprague-Dawley rat at 1 mg/kg, iv; type: ADME, organism-based; parameters: time 0 - last, dose 1 mg/kg, route intravenous; conditions: plasma
[6] = AUClast in cynomolgus monkey at 1 mg/kg, iv; type: ADME, organism-based, Macaca fascicularis; parameters: dose 1 mg/kg, route intravenous, time 0 - last; conditions: plasma
[7] = Tmax in Sprague-Dawley rat at 5 mg/kg, po; type: ADME, organism-based; parameters: dose 5 mg/kg, route oral; conditions: in vivo
[8] = Tmax in Sprague-Dawley rat at 100 mg/kg, po; type: ADME, organism-based; parameters: dose 100 mg/kg, route oral; conditions: in vivo
[9] = Tmax in cynomolgus monkey at 5 mg/kg, po; type: ADME, organism-based, Macaca fascicularis; parameters: dose 5 mg/kg, route oral; conditions: in vivo
[10] = Cmax in Sprague-Dawley rat at 5 mg/kg, po; type: ADME, organism-based; parameters: dose 5 mg/kg, route oral; conditions: in vivo
[11] = Cmax in Sprague-Dawley rat at 100 mg/kg, po; type: ADME, organism-based; parameters: dose 100 mg/kg, route oral; conditions: in vivo
[12] = Cmax in cynomolgus monkey at 5 mg/kg, po; type: ADME, organism-based, Macaca fascicularis; parameters: dose 5 mg/kg, route oral; conditions: in vivo
[13] = AUClast in Sprague-Dawley rat at 5 mg/kg, po; type: ADME, organism-based; parameters: time 0 - last, dose 5 mg/kg, route oral; conditions: plasma
[14] = AUClast in Sprague-Dawley rat at 100 mg/kg, po; type: ADME, organism-based; parameters: time 0 - last, dose 100 mg/kg, route oral; conditions: plasma
[15] = AUClast in cynomolgus monkey at 5 mg/kg, po; type: ADME, organism-based, Macaca fascicularis; parameters: time 0 - last, dose 5 mg/kg, route oral; conditions: plasma
[16] = Oral bioavailability in Sprague-Dawley rat at 5 mg/kg; type: ADME, organism-based; conditions: in vivo
[17] = Oral bioavailability in cynomolgus monkey at 5 mg/kg; type: ADME, organism-based, Macaca fascicularis; conditions: in vivo
[18] = Drug uptake in Sprague-Dawley rat liver at 5 mg/kg, po after 4 hrs; type: ADME, organism-based; parameters: dose 5 mg/kg, route oral; conditions: read-out: Drug uptake
[19] = Plasma concentration in Sprague-Dawley rat […] at 5 mg/kg, po after 4 hrs; type: ADME, organism-based; parameters: dose 5 mg/kg, route oral
[20] = Plasma concentration in Sprague-Dawley rat […] at 100 mg/kg, po after 4 hrs; type: ADME, organism-based; parameters: dose 100 mg/kg, route oral
[21] = Inhibition of NS5A in HCV genotype-1a infected in human HuH7 cells by luciferase reporter gene assay; type: cell-based, Hepatitis C virus subtype 1a; conditions: Hepatitis C virus, Huh-7
[22] = Inhibition of NS5A in HCV genotype-1b infected in human HuH7 cells by luciferase reporter gene assay; type: cell-based, Hepatitis C virus subtype 1b; conditions: Hepatitis C virus, Huh-7
[23] = Solubility of the compound at pH 7.4 by UV detection method; type: physicochemical; conditions: buffer
[24] = Clearance in Sprague-Dawley rat at 1 mg/kg, iv; type: ADME, organism-based; parameters: dose 1 mg/kg, route intravenous; conditions: in vivo
[25] = Clearance in cynomolgus monkey at 1 mg/kg, iv; type: ADME, organism-based, Macaca fascicularis; parameters: dose 1 mg/kg, route intravenous; conditions: in vivo
[26] = Half life in Sprague-Dawley rat at 2 mg/kg, iv; type: ADME, organism-based; parameters: dose 2 mg/kg, route intravenous; conditions: in vivo
[27] = AUClast in Sprague-Dawley rat at 2 mg/kg, iv; type: ADME, organism-based; parameters: time 0 - last, dose 2 mg/kg, route intravenous; conditions: plasma
[28] = Tmax in Sprague-Dawley rat at 10 mg/kg, po; type: ADME, organism-based; parameters: dose 10 mg/kg, route oral; conditions: in vivo
[29] = Cmax in Sprague-Dawley rat at 10 mg/kg, po; type: ADME, organism-based; parameters: dose 10 mg/kg, route oral; conditions: in vivo
[30] = AUClast in Sprague-Dawley rat at 10 mg/kg, po; type: ADME, organism-based; parameters: time 0 - last, dose 10 mg/kg, route oral; conditions: plasma
[31] = Oral bioavailability in Sprague-Dawley rat at 10 mg/kg; type: ADME, organism-based; conditions: in vivo
[32] = Drug uptake in Sprague-Dawley rat liver at 10 mg/kg, po after 4 hrs; type: ADME, organism-based; parameters: dose 10 mg/kg, route oral; conditions: read-out: Drug uptake
[33] = Plasma concentration in Sprague-Dawley rat at 10 mg/kg, po after 4 hrs; type: ADME, organism-based; parameters: dose 10 mg/kg, route oral
[34] = Clearance in Sprague-Dawley rat at 2 mg/kg, iv; type: ADME, organism-based; parameters: dose 2 mg/kg, route intravenous; conditions: in vivo
[35] = Volume of distribution at steady state in Sprague-Dawley rat at 2 mg/kg, iv; type: ADME, organism-based; parameters: dose 2 mg/kg, route intravenous; conditions: in vivo, read-out: Vdss

Compound: COC(=O)N[C@H](C(=O)N1CCC[C@H]1c1ncc(-c2ccc([C@H]3CC[C@](C)(c4cnc([C@@H]5CCCN5C(=O)[C@@H](NC(=O)OC)C(C)C)[nH]4)CC3)cc2)[nH]1)C(C)C
- pEC50 [21]: < 7.00
- pEC50 [22]: 8.89

Compound: COC(=O)N[C@@H](C(=O)N1CCC[C@H]1c1ncc(-c2ccc(N3CCC(c4cnc([C@@H]5CCCN5C(=O)[C@H](NC(=O)OC)c5ccccc5)[nH]4)CC3)c(F)c2)[nH]1)c1ccccc1
- half-life [26]: 1.9 h
- AUC(0-t) [27]: 2060 ng·h/mL
- Tmax [28]: 0.67 h
- Cmax [29]: 41.5 ng/mL
- AUC(0-t) [30]: 109 ng·h/mL
- bioavailability [31]: 1.2%
- concentration at 4 h [32]: 4 ng/mL
- concentration at 4 h [33]: 8.4 ng/mL
- pEC50 [21]: 7.42
- pEC50 [22]: 10.02
- clearance [34]: 17.7 mL/min/kg
- Vd [35]: 1.39 L/kg

Compound: COC(=O)N[C@@H](C(=O)N1CCC[C@H]1c1ncc(-c2cc(F)c(N3CCC(c4cnc([C@@H]5COCCN5C(=O)[C@H](NC(=O)OC)c5ccccc5)[nH]4)CC3)c(F)c2)[nH]1)c1ccccc1
- pEC50 [21]: 7.42
- pEC50 [22]: 10.30

Compound: COC(=O)N[C@H](C(=O)N1CCC[C@H]1c1ncc(-c2ccc([C@H]3CC[C@H](c4cnc([C@@H]5CCCN5C(=O)[C@H](C(C)C)N(C)C)[nH]4)CC3)cc2)[nH]1)C(C)C
- pEC50 [21]: < 7.00
- pEC50 [22]: 9.15

Compound: COC(=O)N[C@H](C(=O)N[C@@H](C)c1ncc(C2CCN(c3c(F)cc(-c4cnc([C@@H]5CCCN5C(=O)[C@@H](NC(=O)OC)C(C)C)[nH]4)cc3F)CC2)[nH]1)C(C)C
- pEC50 [21]: 7.17
- pEC50 [22]: 9.85

Compound: COC(=O)N[C@@H](C(=O)N1CCOC[C@H]1c1ncc(-c2cc(F)c(N3CCC(c4cnc([C@@H]5CCCN5C(=O)[C@H](NC(=O)OC)c5ccccc5)[nH]4)CC3)c(F)c2)[nH]1)c1ccccc1
- pEC50 [21]: 7.14
- pEC50 [22]: 10.40

The next molecules have a higher pEC50 [21] than those just listed; values first:

- Vd [1]: 1.31 L/kg
- Vd [2]: 0.64 L/kg
- half-life [3]: 1.2 h
- half-life [4]: 1.24 h
- AUC(0-t) [5]: 1050 ng·h/mL
- AUC(0-t) [6]: 2570 ng·h/mL
- Tmax [7]: 1.17 h
- Tmax [8]: 2 h
- Tmax [9]: 4 h
- Cmax [10]: 980 ng/mL
- Cmax [11]: 19100 ng/mL
- Cmax [12]: 1400 ng/mL
- AUC(0-t) [13]: 6580 ng·h/mL
- AUC(0-t) [14]: 242000 ng·h/mL
- AUC(0-t) [15]: 7930 ng·h/mL
- bioavailability [16]: 124%
- bioavailability [17]: 61.1%
- concentration at 4 h [18]: 2590 ng/mL
- concentration at 4 h [19]: 653 ng/mL
- concentration at 4 h [20]: 15800 ng/mL
- pEC50 [21]: 8.85
- pEC50 [22]: 10.22
- solubility [23]: 45 µg/mL (≈ 58.4 µM)
- clearance [24]: 15.7 mL/min/kg
- clearance [25]: 6.5 mL/min/kg
Compound: COC(=O)N[C@H](C(=O)N1CCC[C@H]1c1ncc(-c2ccc(C34CCC(c5cnc([C@@H]6CCCN6C(=O)[C@@H](NC(=O)OC)C(C)C)[nH]5)(CC3)CC4)cc2)[nH]1)C(C)C

- pEC50 [21]: 8.77
- pEC50 [22]: 9.85
Compound: COC(=O)N[C@H](C(=O)N1CCC[C@H]1c1ncc(-c2ccc([C@H]3CC[C@H](c4cnc([C@@H]5CCCN5C(=O)[C@@H](c5ccccc5)N(C)C)[nH]4)CC3)cc2)[nH]1)C(C)C

- pEC50 [21]: 7.47
- pEC50 [22]: 10.05
Compound: COC(=O)N[C@H](C(=O)N1CCC[C@H]1c1ncc(-c2cc(F)c(N3CCC(c4cnc([C@@H]5CCCCN5C(=O)[C@@H](NC(=O)OC)C(C)C)[nH]4)CC3)c(F)c2)[nH]1)C(C)C

- pEC50 [21]: 9.85
- pEC50 [22]: 10.64
- solubility [23]: 6.8 µg/mL (≈ 9.2 µM)
Compound: COC(=O)N[C@H](C(=O)N1CCC[C@H]1c1ncc(-c2ccc(-c3ccc(-c4cnc([C@@H]5CCCN5C(=O)[C@@H](NC(=O)OC)C(C)C)[nH]4)cc3)cc2)[nH]1)C(C)C [DACLATASVIR]

- pEC50 [21]: 8.59
- pEC50 [22]: 10.30
Compound: COC(=O)N[C@H](C(=O)N1CCC[C@H]1c1ncc(-c2ccc([C@H]3CC[C@H](c4cnc([C@@H]5CCCN5C(=O)[C@H](NC(=O)OC)c5ccccc5)[nH]4)CC3)cc2)[nH]1)C(C)C

- pEC50 [21]: 8.35
- pEC50 [22]: 9.07
Compound: COC(=O)N[C@H](C(=O)N1CCC[C@H]1c1ncc(-c2ccc([C@H]3CC[C@H](c4cnc([C@@H]5CCCN5C(=O)[C@@H](NC(=O)OC)C5CC5)[nH]4)CC3)cc2)[nH]1)C1CC1

- pEC50 [21]: 8.39
- pEC50 [22]: 10.30
Compound: CC[C@H](C)[C@H](NC(=O)OC)C(=O)N1CCC[C@H]1c1ncc(-c2ccc([C@H]3CC[C@H](c4cnc([C@@H]5CCCN5C(=O)[C@@H](NC(=O)OC)[C@@H](C)CC)[nH]4)CC3)cc2)[nH]1
